Assay results taken from PubChem BioAssay (NCI).
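Dose response: 5 concentrations. Exposure: 48 h. Format: 96-well plates. Endpoint: linear interpolation; highest concentration if not reached. TGI: concentration producing complete growth inhibition.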

Key:
Assay in all cases: NCI-60 cell line screen, 48 h
K-562 leukemia = tested on: K-562 leukemia
UACC-257 melanoma = tested on: UACC-257 melanoma
EKVX NSCLC = tested on: EKVX NSCLC
MDA-MB-435 = tested on: MDA-MB-435
DU-145 prostate = tested on: DU-145 prostate
HOP-92 NSCLC = tested on: HOP-92 NSCLC
SR leukemia = tested on: SR leukemia
RXF 393 renal = tested on: RXF 393 renal
SK-MEL-5 melanoma = tested on: SK-MEL-5 melanoma
SF-295 CNS = tested on: SF-295 CNS
HS 578T breast = tested on: HS 578T breast
HL-60(TB) leukemia = tested on: HL-60(TB) leukemia
NCI-H226 lung = tested on: NCI-H226 lung
SN12C renal = tested on: SN12C renal
TK-10 renal = tested on: TK-10 renal
HOP-62 NSCLC = tested on: HOP-62 NSCLC
SW-620 colon = tested on: SW-620 colon
M14 melanoma = tested on: M14 melanoma
MOLT-4 leukemia = tested on: MOLT-4 leukemia
OVCAR-8 ovarian = tested on: OVCAR-8 ovarian
SK-MEL-28 melanoma = tested on: SK-MEL-28 melanoma
MCF7 breast = tested on: MCF7 breast
SK-MEL-2 melanoma = tested on: SK-MEL-2 melanoma
UACC-62 melanoma = tested on: UACC-62 melanoma
IGROV1 ovarian = tested on: IGROV1 ovarian
NCI-H522 lung = tested on: NCI-H522 lung
OVCAR-5 ovarian = tested on: OVCAR-5 ovarian
T-47D breast = tested on: T-47D breast
BT-549 breast = tested on: BT-549 breast
A549 NSCLC = tested on: A549 NSCLC
SNB-19 CNS = tested on: SNB-19 CNS
KM12 colon = tested on: KM12 colon
LOX IMVI melanoma = tested on: LOX IMVI melanoma
U251 CNS = tested on: U251 CNS
RPMI-8226 leukemia = tested on: RPMI-8226 leukemia
NCI-H23 lung = tested on: NCI-H23 lung
HT29 colon = tested on: HT29 colon
SK-OV-3 ovarian = tested on: SK-OV-3 ovarian
PC-3 prostate = tested on: PC-3 prostate
COLO 205 colon = tested on: COLO 205 colon
SF-268 CNS = tested on: SF-268 CNS
UO-31 renal = tested on: UO-31 renal
MDA-N = tested on: MDA-N
CCRF-CEM leukemia = tested on: CCRF-CEM leukemia
SNB-75 CNS = tested on: SNB-75 CNS
NCI/ADR-RES ovarian = tested on: NCI/ADR-RES ovarian
A498 renal = tested on: A498 renal
ACHN renal = tested on: ACHN renal
CAKI-1 renal = tested on: CAKI-1 renal
HCT-116 colon = tested on: HCT-116 colon
MALME-3M melanoma = tested on: MALME-3M melanoma
786-0 renal = tested on: 786-0 renal
MDA-MB-231 breast = tested on: MDA-MB-231 breast
OVCAR-4 ovarian = tested on: OVCAR-4 ovarian
HCT-15 colon = tested on: HCT-15 colon
HCC-2998 colon = tested on: HCC-2998 colon
OVCAR-3 ovarian = tested on: OVCAR-3 ovarian
NCI-H460 lung = tested on: NCI-H460 lung
SF-539 CNS = tested on: SF-539 CNS

Measured: TGI

CC(C)(C)C1=NC(=P(c2ccccc2)(c2ccccc2)c2ccccc2)C(=O)O1
56.5 µM: SNB-75 CNS
90.8 µM: NCI-H522 lung
not listed: OVCAR-4 ovarian | HCT-15 colon | HCC-2998 colon | OVCAR-3 ovarian | NCI-H460 lung | SF-539 CNS
> 100 µM: all other assays above

COc1cc(/C=C2\C[C@H]3[C@@H]4CC=C5C[C@@H](OC(C)=O)CC[C@]5(C)[C@H]4CC[C@]3(C)\C2=N\O)cc(OC)c1OC
> 90.8 µM: BT-549 breast
> 88.9 µM: NCI/ADR-RES ovarian
> 81.9 µM: EKVX NSCLC
> 72.1 µM: SK-MEL-28 melanoma
4.28 µM: RXF 393 renal
45.6 µM: UACC-62 melanoma
38.4 µM: LOX IMVI melanoma
> 86.3 µM: U251 CNS
> 83.7 µM: OVCAR-4 ovarian
> 92.4 µM: SF-539 CNS
14.8 µM: SR leukemia
> 68.4 µM: HT29 colon
18.6 µM: PC-3 prostate
> 32.8 µM: ACHN renal
> 30.6 µM: CCRF-CEM leukemia
> 60.2 µM: CAKI-1 renal
15.8 µM: HL-60(TB) leukemia
> 91.3 µM: MDA-MB-435
76.6 µM: SK-MEL-2 melanoma
95 µM: UO-31 renal
13 µM: SF-295 CNS
5.22 µM: T-47D breast
3.08 µM: RPMI-8226 leukemia
> 43.3 µM: SNB-75 CNS | 786-0 renal
9.43 µM: HOP-92 NSCLC
> 60.9 µM: MALME-3M melanoma
17.8 µM: COLO 205 colon
> 25.5 µM: MOLT-4 leukemia
> 49.8 µM: NCI-H522 lung
14.7 µM: SK-MEL-5 melanoma
not listed: A498 renal
> 100 µM: all other assays above
